Assay results: US5840893A, “Compounds for treating infectious diseases” (priority 1996, dated 1998)
pIC50: −log10 of the molar value. Entries after “also recorded” stand apart in the source; their conditions may differ.

Legend:
HIV-1 [1] = experiment: AZT and Compound No. 2 in combination on HIV-1 infected monocyte cultures (RT activity); assay type: cell-based, HIV-1 in human monocyte cultures; settings: for RT activity: 100 nM Compound No. 2, AZT 0
Experimental: Primary human monocytes were obtained from peripheral blood by Ficoll-Hypaque centrifugation and adherence to plastic as described previously. Gartner S. P., et al., 1986, Science 233:215. Briefly, after Ficoll-Hypaque (Pharmacia) separation, PBMCs were washed 4 times with DMEM (the last wash was done at 800 rpm to remove platelets) and resuspended in monocyte culture medium [DMEM supplemented with 1 mM glutamine, 10% heat-inactivated human serum, 1% penicillin+streptomycin mixture (Sigma)] at a density of 6×10^6 cells/ml. Cells were seeded in 24-well plates (1 ml per well) and incubated for 2 h at 37° C., 5% CO2. Following incubation, cells were washed 3 times with DMEM to remove non-adherent cells and incubation was continued in monocyte culture medium supplemented with 250 U/ml human M-CSF (Sigma). Cells were allowed to mature for 7 days prior to infection with the monocyte-tropic strain, HIV-1ADA. Nuovo, G. J., et al., 1992, Diagn. Mol. Pathol. 1:98. Two hours after infection, cells were washed with medium and cultured in RPMI supplemented with 10% human serum. In experiments where PCR analysis was performed, virus was pretreated with RNAse-free DNAse (Boehinger-Mannheim)for 2 h at room temperature and then filtered though a 0.2 μm pore nitrocellulose filter prior to infection.
(§1) For the reverse transcriptase (RT) assay, 10 μl of culture supernatant was added to 40 μl of reaction mixture (final composition was 50 mM Tris-HCl, pH 7.8; 20 mM KCl; 5 mM MgCl2; 1 mM DTT; 0.1% Triton X-100; 0.2 OD/ml polyA; 0.2 OD/ml oligo(dT)12-18; and 40 μCi/ml ^3 H-dTTP (76 Ci/mmol, DuPont) and incubated 2 hr at 37° C. 5 μl of the reaction mixture was then spotted onto the DE 81 (Whatman) paper. Paper was air dried and washed 5 times with 5% Na2 HPO4, followed by rinsing with distilled water. After air drying, paper was put on a Flexi Filter plate (Packard), covered with scintillation fluid and counted in a Top Count Microplate Counter (Packard). Results are expressed as counts per minute in 1 ml of supernatant (cpm/ml).
In view of these premises, the effects on HIV-1 replication in human monocyte cultures of the various concentrations of AZT, alone or in combination with 100 nM Compound No. 2, were tested using the protocols of Sections 6.2.1 and 6.2.2. Drugs were added to the monocyte cultures together with HIV-1 at about 10^5 TCID/ml. The concentration of drugs was maintained on refeeding. HIV-1 replication was assessed by assay of the supernatant for reverse transcriptase activity. The results are expressed as mean±std. dev. (cpmx10^-3) in Table V.

HIV-1ADA = experiment: RT activity in supernatant of HIV-1ADA-infected mitogen-stimulated peripheral blood leukocytes; assay type: cell-based, HIV-1ADA in human PBMC
Experimental: PBMCs were purified by Ficoll-Hypaque centrifugation and activated by 10 μg/ml PHA-P (Sigma) and 20 U/ml recombinant human IL-2 (rhIL-2) in RPMI 1640 supplemented with 10% FBS (HyClone). After 24 h incubation, cells were washed and inoculated with HIV-1ADA in RPMI 1640 supplemented with 10% FBS. After a 2 h adsorption, free virus was washed away and cells were cultured in RPMI 1640 supplemented with 10% FBS and 20 U/ml rhIL-2.
as §1

HIV-1 [2] = experiment: Inhibition of HIV-1 replication in cultured macrophages (Table I); assay type: cell-based; settings: Human immunodeficiency virus 1, Macrophage; 50% inhibition of viral growth, RT or p24, macrophages
Experimental: A quantitative measurement of the activity of the compounds of the invention to block the replication of HIV-1 in non-dividing cells can be determined by culture of a macrophage-tropic strain of HIV-1 on peripheral blood-derived macrophages. The cells are cultured for 5-6 days prior to infection in a medium consisting of DMEM supplemented with 10% type A/B human serum and 200 U/ml Macrophage Colony Stimulating Factor, with half the medium changed after 3 days, to reach a density of about 10^6 cells per 5 ml well. A macrophage-tropic viral stock may be grown on these cells. The concentration of infectious particles in the stock is estimated by measurement of p24 antigen concentration.
To test the effect of compounds of the invention on HIV- 1 infection in the above-described culture system, the medium is removed and replaced with medium containing HIV-1 at a concentration of 1 ng of p24 (10^4 TCID50 /ml (TCID=tissue culture infectious doses)) and a known concentration of the compound of the invention (the inhibitor). After 24 hours, the cultures are washed to remove non-adherent virus and the culture is re-fed with medium containing the inhibitor at the desired concentration. The amount of replication of HIV-1 is estimated by an assay of the reverse transcriptase activity or by an assay of the concentration of p24 antigen in the culture medium every 2-3 days throughout the post-infection period. In a preferred embodiment the anti-HIV potency of the candidate drug is measured by comparison of the concentration of reverse transcriptase (RT) or of p24 antigen in the medium of the treated and control cultures at the time of the peak of these values in non-treated control cultures, that is about day 5 or 6 post-infection. Repetition at various levels of inhibitor allows for the calculation of the concentration of inhibitor that achieves 50% inhibition of viral growth, IC50. Table I discloses the IC50 of various inhibitors.

[3] = Table IV; measured in a 25 gr mouse
Experimental: Standard addition curves for each test compound were constructed by adding increased amounts of drug to mouse or human A^+ plasma (Long Island Blood Services; Melville, N.Y.). […] The eluted sample was reduced to dryness in a rotary evaporator and resuspended in 1.0 ml Buffer A.
Female ND4 Swiss Webster mice (21-24 g) were obtained from Harlan Sprague Dawley (Indianapolis, Ind.) and randomly placed in groups of five in cages with free access to food and water. […] The other CNI compounds were administered intraperitoneally or by oral gavage as a solution in water titrated with sufficient HCl to dissolve the drug. At various time points, ranging from 5 min to 4 days, a single group of animals was euthanized by carbon dioxide inhalation and bled by cardiac puncture using heparin as an anticoagulant. The blood from the five mice in the group was pooled and centrifuged at 14000×g for 10 min. The volume of plasma was measured, and equal volume of Buffer A added, and the mixture extracted and analyzed as described above, except that the dried eluates were resuspended in 200 μl Buffer A and 100 μl was injected onto the high performance liquid chromatography (HPLC) system.
The area under the plasma concentration-time curve (AUC) was determined, and bioavailability was measured as AUCoral /AUCi.p.. […] The volume of distribution (VD) was calculated as dose/B, and the total clearance rate (Cltot) calculated as β*VD. Cmax and tmax are the maximal plasma concentration and time of this measurement, respectively.

reverse transcriptase = target: T1, reverse transcriptase (HIV-1 M:B_HXB2R, UniProt P04585); experiment: Inhibition of reverse transcriptase; assay type: biochemical; settings: data not shown
T1 construct: infection experiments used HIV-1 ADA virus supernatant

CC(=O)c1cc(Nc2cc(C)[n+](C)c(N)n2)cc(C(C)=O)c1.[I-] [Compound No. 2, 2-amino-4-(3,5-diacetylphenyl)amino-1,6-dimethylpyrimidinium iodide] showed an inhibition at 0.1 µM (HIV-1 [1]; Human immunodeficiency virus 1, Monocyte, 264 h, day-11, 100 nM Compound No. 2 alone, read-out: reduction in RT activity) of roughly 60%, an RT activity (HIV-1 [1]; day-7) of 0.37 ± 0.07 cpmx10^-3 and an RT activity (HIV-1 [1]; day-11) of 0.72 ± 0.30 cpmx10^-3. The “reduction in viral output” value (HIV-1ADA; 1 and 10 μM, lower MOI (1 ng p24/10^6 cells), FIG. 3B) was roughly 2 fold, the “anti-viral effect on activated PBLs / replicating cells” value (HIV-1ADA; actively dividing cell populations, FIG. 3) was “much less expressed in these actively dividing cell populations; also recorded: No anti-viral effect was detected” and the “effect on viral production” value (HIV-1ADA; up to 10 μM, higher MOI (10 ng p24/10^6 cells), FIG. 3A) was “only a marginal effect on viral production”. For the same compound, the pIC50 (HIV-1 [2]) was 9.00, the Clearance [3] was 35.35 mL/min and the “inhibition of reverse transcriptase” value (reverse transcriptase) was “does not inhibit reverse transcriptase”.
